We go through 25 compounds from US9630922B2, “3-spiro-7-hydroxamic acid tetralins as HDAC inhibitors” (Forma Therapeutics, Inc., priority 2015, dated 2017).

Bounds are passed on as bounds.

The target of the assay is T1, HDAC6 (Homo sapiens, UniProt Q9UBN7).
T1 construct: Full length human recombinant HDAC6 protein was expressed in baculoviral system; made in house; host or cells: baculoviral system
T1 sequence (Q9UBN7 1-1215): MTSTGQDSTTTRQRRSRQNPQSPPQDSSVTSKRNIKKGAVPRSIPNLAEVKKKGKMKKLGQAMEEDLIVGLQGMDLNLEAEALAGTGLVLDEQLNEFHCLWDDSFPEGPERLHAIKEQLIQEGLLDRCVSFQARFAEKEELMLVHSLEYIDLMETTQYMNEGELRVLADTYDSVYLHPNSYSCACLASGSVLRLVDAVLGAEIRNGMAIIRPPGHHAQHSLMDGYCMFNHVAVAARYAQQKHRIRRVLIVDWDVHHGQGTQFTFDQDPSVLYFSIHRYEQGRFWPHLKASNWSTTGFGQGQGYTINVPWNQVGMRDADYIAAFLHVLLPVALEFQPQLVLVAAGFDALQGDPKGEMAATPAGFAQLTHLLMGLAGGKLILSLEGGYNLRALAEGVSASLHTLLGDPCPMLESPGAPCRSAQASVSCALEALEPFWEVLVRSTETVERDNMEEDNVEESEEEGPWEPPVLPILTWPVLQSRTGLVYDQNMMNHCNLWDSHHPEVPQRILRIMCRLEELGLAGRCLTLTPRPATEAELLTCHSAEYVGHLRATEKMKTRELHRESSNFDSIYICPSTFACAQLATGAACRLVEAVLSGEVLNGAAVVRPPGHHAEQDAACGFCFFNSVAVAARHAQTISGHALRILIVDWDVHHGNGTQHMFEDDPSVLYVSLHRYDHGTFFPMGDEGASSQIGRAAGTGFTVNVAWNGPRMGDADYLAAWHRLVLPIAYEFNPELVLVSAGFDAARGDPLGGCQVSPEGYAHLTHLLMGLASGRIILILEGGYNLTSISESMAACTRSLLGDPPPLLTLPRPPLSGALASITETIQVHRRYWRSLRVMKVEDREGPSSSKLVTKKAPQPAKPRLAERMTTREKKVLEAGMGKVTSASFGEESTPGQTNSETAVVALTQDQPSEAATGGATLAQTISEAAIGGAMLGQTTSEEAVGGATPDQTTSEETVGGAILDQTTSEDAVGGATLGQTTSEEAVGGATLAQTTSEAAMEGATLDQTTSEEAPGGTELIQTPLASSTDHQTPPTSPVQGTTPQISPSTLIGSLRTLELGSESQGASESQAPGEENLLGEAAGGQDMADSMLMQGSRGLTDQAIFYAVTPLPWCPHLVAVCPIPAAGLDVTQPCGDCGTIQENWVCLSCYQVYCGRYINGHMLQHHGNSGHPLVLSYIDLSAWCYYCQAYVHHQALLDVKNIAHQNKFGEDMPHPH
Put plainly: In vitro Histone Deacetylase Assay (enzymatic HDAC6 electrophoretic mobility shift assay). It is filed as biochemical. Particulars: full length human recombinant HDAC6, 1 nM enzyme, 2 μM peptide substrate RHKK(Ac)-NH2, 25° C.; read-out: HDAC6 activity range. The procedure, abridged: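 Deacetylation was read by microfluidic mobility shift as product/(substrate+product) peak ratio and normalised to 0% and 100% inhibition controls. Reactions used 1 nM baculovirus-expressed full-length human HDAC6 and 2 μM labelled RHKK(Ac)-NH2 in pH 7.5 HEPES buffer with 1% DMSO at 25 °C. IC50 was from 4-parameter fits of 12 concentrations.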
A general note: A gel shift assay detects complexes by their altered migration in electrophoresis.
As for `O=C(NO)c1ccc2c(c1)CC[C@@]1(CCN(Cc3ccc4nonc4c3)C1=O)C2` [Compound I-70, (S)-1′-(benzo[c][1,2,5]oxadiazol-5-ylmethyl)-N-hydroxy-2′-oxo-3,4-dihydro-1H-spiro[naphthalene-2,3′-pyrrolidine]-6-carboxamide], the IC50 was at most 100 nM.

As to `O=C(NO)c1ccc2c(c1)CC[C@@]1(CCN(CC(=O)N3CCOCC3)C1=O)C2` [Compound I-71, (S)-N-hydroxy-1′-(2-morpholino-2-oxoethyl)-2′-oxo-3,4-dihydro-1H-spiro[naphthalene-2,3′-pyrrolidine]-6-carboxamide], the IC50 was 100 to 500 nM.

In the case of `COc1ccccc1CN1CC[C@@]2(CCc3cc(C(=O)NO)ccc3C2)C1=O` [Compound I-72, (S)-N-hydroxy-1′-(2-methoxybenzyl)-2′-oxo-3,4-dihydro-1H-spiro[naphthalene-2,3′-pyrrolidine]-6-carboxamide], the IC50 was at most 100 nM.

In the case of `CC(C)n1c(CN2CC[C@@]3(CCc4cc(C(=O)NO)ccc4C3)C2=O)nc2ccccc21` [Compound I-73, (S)-N-hydroxy-1′-((1-isopropyl-1H-benzo[d]imidazol-2-yl)methyl)-2′-oxo-3,4-dihydro-1H-spiro[naphthalene-2,3′-pyrrolidine]-6-carboxamide], the IC50 is at most 100 nM.

For `O=C(NO)c1ccc2c(c1)CC[C@@]1(CCN(Cc3cc(Cl)ccc3Cl)C1=O)C2` [Compound I-74, (S)-1′-(2,5-dichlorobenzyl)-N-hydroxy-2′-oxo-3,4-dihydro-1H-spiro[naphthalene-2,3′-pyrrolidine]-6-carboxamide], the IC50 lay in the range of 100 to 500 nM.

`O=C(NO)c1ccc2c(c1)CC[C@@]1(CCN(Cc3c(Cl)cccc3Cl)C1=O)C2` [Compound I-75, (S)-1′-(2,6-dichlorobenzyl)-N-hydroxy-2′-oxo-3,4-dihydro-1H-spiro[naphthalene-2,3′-pyrrolidine]-6-carboxamide]: the IC50 was in the range of 100 to 500 nM.

As for `O=C(NO)c1ccc2c(c1)CC[C@@]1(CCN(Cc3ccccc3)C1=O)C2` [Compound I-76, (S)-1′-benzyl-N-hydroxy-2′-oxo-3,4-dihydro-1H-spiro[naphthalene-2,3′-pyrrolidine]-6-carboxamide], the IC50 is at most 100 nM.

Regarding `COc1cccc(CN2CC[C@@]3(CCc4cc(C(=O)NO)ccc4C3)C2=O)c1` [Compound I-77, (S)-N-hydroxy-1′-(3-methoxybenzyl)-2′-oxo-3,4-dihydro-1H-spiro[naphthalene-2,3′-pyrrolidine]-6-carboxamide], the IC50 was at most 100 nM.

`O=C(NO)c1ccc2c(c1)CC[C@@]1(CCN(Cc3ccccn3)C1=O)C2` [Compound I-78, (S)-N-hydroxy-2′-oxo-1′-(pyridin-2-ylmethyl)-3,4-dihydro-1H-spiro[naphthalene-2,3′-pyrrolidine]-6-carboxamide]: the IC50 was at most 100 nM.

As to `O=C(NO)c1ccc2c(c1)CC[C@@]1(CCN(Cc3cccc(F)c3)C1=O)C2` [Compound I-79, (S)-1′-(3-fluorobenzyl)-N-hydroxy-2′-oxo-3,4-dihydro-1H-spiro[naphthalene-2,3′-pyrrolidine]-6-carboxamide], the IC50 is at most 100 nM.

Turning to `O=C(NO)c1ccc2c(c1)CC[C@@]1(CCN(Cc3ccc(OC(F)(F)F)cc3)C1=O)C2` [Compound I-80, (S)-N-hydroxy-2′-oxo-1′-(4-(trifluoromethoxy)benzyl)-3,4-dihydro-1H-spiro[naphthalene-2,3′-pyrrolidine]-6-carboxamide], the IC50 lay in the range of 100 to 500 nM.

Regarding `O=C(NO)c1ccc2c(c1)CC[C@@]1(CCN(Cc3cccc(Cl)c3)C1=O)C2` [Compound I-81, (S)-1′-[(3-chlorophenyl)methyl]-N-hydroxy-2′-oxo-3,4-dihydro-1H-spiro[naphthalene-2,3′-pyrrolidine]-6-carboxamide], the IC50 was at most 100 nM.

Take `O=C(NO)c1ccc2c(c1)CC[C@@]1(CCN(Cc3ccc(Cl)cc3)C1=O)C2` [Compound I-82, (S)-1′-(4-chlorobenzyl)-N-hydroxy-2′-oxo-3,4-dihydro-1H-spiro[naphthalene-2,3′-pyrrolidine]-6-carboxamide]: the IC50 is at most 100 nM.

`COc1ccc(CN2CC[C@@]3(CCc4cc(C(=O)NO)ccc4C3)C2=O)cc1` [Compound I-83, (S)-N-hydroxy-1′-(4-methoxybenzyl)-2′-oxo-3,4-dihydro-1H-spiro[naphthalene-2,3′-pyrrolidine]-6-carboxamide]: the IC50 was at most 100 nM.

In the case of `O=C(NO)c1ccc2c(c1)CC[C@@]1(CCN(Cc3ccccc3F)C1=O)C2` [Compound I-84, (S)-1′-(2-fluorobenzyl)-N-hydroxy-2′-oxo-3,4-dihydro-1H-spiro[naphthalene-2,3′-pyrrolidine]-6-carboxamide], the IC50 was at most 100 nM.

For `CC(C)(C)c1ccc(CN2CC[C@@]3(CCc4cc(C(=O)NO)ccc4C3)C2=O)cc1` [Compound I-85, (S)-1′-(4-(tert-butyl)benzyl)-N-hydroxy-2′-oxo-3,4-dihydro-1H-spiro[naphthalene-2,3′-pyrrolidine]-6-carboxamide], the IC50 lay in the range of 100 to 500 nM.

With `O=C(NO)c1ccc2c(c1)CC[C@@]1(CCN(Cc3ccc4ccccc4c3)C1=O)C2` [Compound I-86, (S)-N-hydroxy-1′-(naphthalen-2-ylmethyl)-2′-oxo-3,4-dihydro-1H-spiro[naphthalene-2,3′-pyrrolidine]-6-carboxamide], the IC50 is at most 100 nM.

With `O=C(NO)c1ccc2c(c1)CC[C@@]1(CCN(Cc3ccccc3OC(F)F)C1=O)C2` [Compound I-87, (S)-1′-(2-(difluoromethoxy)benzyl)-N-hydroxy-2′-oxo-3,4-dihydro-1H-spiro[naphthalene-2,3′-pyrrolidine]-6-carboxamide], the IC50 was at most 100 nM.

For `CS(=O)(=O)c1ccc(CN2CC[C@]3(CCc4cc(C(=O)NO)ccc4C3)C2=O)cc1` [Compound I-88, (R)-N-hydroxy-1′-(4-(methylsulfonyl)benzyl)-2′-oxo-3,4-dihydro-1H-spiro[naphthalene-2,3′-pyrrolidine]-6-carboxamide], the IC50 was at most 100 nM.

In the case of `O=C(NO)c1ccc2c(c1)CC[C@]1(CCN(c3cccc4ccccc34)C1=O)C2` [Compound I-89, (R)-N-hydroxy-1′-(naphthalen-1-yl)-2′-oxo-3,4-dihydro-1H-spiro[naphthalene-2,3′-pyrrolidine]-6-carboxamide], the IC50 was at most 100 nM.

For `COc1ccc(N2CC[C@]3(CCc4cc(C(=O)NO)ccc4C3)C2=O)cc1F` [Compound I-90, (R)-1′-(3-fluoro-4-methoxyphenyl)-N-hydroxy-2′-oxo-3,4-dihydro-1H-spiro[naphthalene-2,3′-pyrrolidine]-6-carboxamide], the IC50 was at most 100 nM.

As for `O=C(NO)c1ccc2c(c1)CC[C@]1(CCN(c3ccc4c(c3)OCO4)C1=O)C2` [Compound I-91, (R)-1′-(benzo[d][1,3]dioxol-5-yl)-N-hydroxy-2′-oxo-3,4-dihydro-1H-spiro[naphthalene-2,3′-pyrrolidine]-6-carboxamide], the IC50 is at most 100 nM.

With `CSc1cccc(N2CC[C@]3(CCc4cc(C(=O)NO)ccc4C3)C2=O)c1` [Compound I-92, (R)-N-hydroxy-1′-(3-(methylthio)phenyl)-2′-oxo-3,4-dihydro-1H-spiro[naphthalene-2,3′-pyrrolidine]-6-carboxamide], the IC50 is at most 100 nM.

`CN(C)c1ccc(N2CC[C@]3(CCc4cc(C(=O)NO)ccc4C3)C2=O)cc1` [Compound I-93, (R)-1′-(4-(dimethylamino)phenyl)-N-hydroxy-2′-oxo-3,4-dihydro-1H-spiro[naphthalene-2,3′-pyrrolidine]-6-carboxamide]: the IC50 was at most 100 nM.

For `CC(C)c1ccc(N2CC[C@]3(CCc4cc(C(=O)NO)ccc4C3)C2=O)cn1` [Compound I-94, (R)-N-hydroxy-1′-(6-isopropylpyridin-3-yl)-2′-oxo-3,4-dihydro-1H-spiro[naphthalene-2,3′-pyrrolidine]-6-carboxamide], the IC50 was at most 100 nM.
